The record followed here is patent US5462958A, “Benzene derivatives and method of treating arteriosclerosis with benzene derivatives” (Eisai Co., Ltd., priority 1992, dated 1995).

The IC50 is the point on the concentration scale where inhibition reaches its midpoint.

What all share (assay type): biochemical
For experiment [1], the target named is T1, ACAT (Oryctolagus cuniculus, UniProt A0A5F9CPP4).
T1 construct: supernatant of homogenate of the arterial wall of a rabbit; from tissue; host or cells: supernatant of homogenate of rabbit arterial wall
T1 sequence (A0A5F9CPP4 1-555): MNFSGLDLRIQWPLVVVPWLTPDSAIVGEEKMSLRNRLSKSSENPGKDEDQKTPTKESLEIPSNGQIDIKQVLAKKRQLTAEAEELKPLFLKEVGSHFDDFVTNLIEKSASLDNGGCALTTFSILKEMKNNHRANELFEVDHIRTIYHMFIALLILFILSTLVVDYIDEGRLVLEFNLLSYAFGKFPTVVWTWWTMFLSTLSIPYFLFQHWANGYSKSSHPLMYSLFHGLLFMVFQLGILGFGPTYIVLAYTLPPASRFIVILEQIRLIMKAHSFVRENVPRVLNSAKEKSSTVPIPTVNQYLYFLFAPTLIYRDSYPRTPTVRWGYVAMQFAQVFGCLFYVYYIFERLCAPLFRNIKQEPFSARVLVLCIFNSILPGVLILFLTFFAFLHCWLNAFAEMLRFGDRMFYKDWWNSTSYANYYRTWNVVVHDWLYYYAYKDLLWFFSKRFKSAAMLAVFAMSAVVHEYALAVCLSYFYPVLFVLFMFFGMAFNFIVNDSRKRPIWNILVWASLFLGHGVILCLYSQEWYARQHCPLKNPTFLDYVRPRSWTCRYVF
As to the kind of experiment: ACAT-inhibitory activity in vitro, supernatant of homogenate of the arterial wall of a rabbit (acylation of cholesterol with radiolabeled oleoyl-CoA). The procedure:
(§1) Representative compounds according to the present invention were examined for ACAT-inhibitory activity according to the in-vitro test method described in Journal of Lipid Research, vol. 24, pp. 1049-1059 (1983) by F. J. Field and S. N. Mathur.
(§2) The inhibitory activity of a test compound against the acylation, which was based on the inhibitory activity of the test compound against the enzyme which catalyzes the acylation of cholesterol with oleoyl-CoA, was evaluated by using one of the supernatant of homogenate of the arterial wall of a rabbit, the microsome of the small intestine of a rat and the supernatant of homogenate of the epithelial cell (CaCO2) resulting from human colon cancer as an enzyme source, determining the amount of a radioisotope-labeled cholesterol oleate made from a radiolabeled oleoyl-CoA and (free) cholesterol and comparing the result of the case when a test compound was added with the result of control (the case when no test compound was added).
(§3) The data which are given in Table 1 are IC50 values, i.e., the concentrations of test compounds necessary for inhibiting 50% of the enzymatic activity of ACAT.

For experiment [2], the system named is ACAT. As to the kind of experiment: ACAT-inhibitory activity in vitro, supernatant of homogenate of the epithelial cell (CaCO2) resulting from human colon cancer (acylation of cholesterol with radiolabeled oleoyl-CoA). The procedure:
as §1, §2, §3

The target of experiment [3] is T2, ACAT (Rattus norvegicus, UniProt Q7TQM4).
T2 construct: the microsome of the small intestine of a rat; from tissue; host or cells: microsomes of rat small intestine
T2 sequence (Q7TQM4 1-524): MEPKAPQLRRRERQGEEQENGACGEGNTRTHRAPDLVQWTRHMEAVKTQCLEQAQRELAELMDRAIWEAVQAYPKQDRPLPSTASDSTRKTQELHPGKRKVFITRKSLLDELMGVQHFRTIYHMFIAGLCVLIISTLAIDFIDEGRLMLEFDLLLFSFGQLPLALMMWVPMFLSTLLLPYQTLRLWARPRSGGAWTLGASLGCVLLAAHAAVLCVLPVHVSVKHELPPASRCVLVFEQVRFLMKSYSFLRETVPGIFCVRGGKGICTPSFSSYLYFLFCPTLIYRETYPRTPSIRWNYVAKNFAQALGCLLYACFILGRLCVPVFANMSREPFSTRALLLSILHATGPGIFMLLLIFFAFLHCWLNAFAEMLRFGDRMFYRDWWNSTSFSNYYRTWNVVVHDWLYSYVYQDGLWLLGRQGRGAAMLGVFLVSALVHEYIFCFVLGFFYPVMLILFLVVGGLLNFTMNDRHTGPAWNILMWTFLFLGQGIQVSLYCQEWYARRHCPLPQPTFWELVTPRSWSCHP
As to the kind of experiment: ACAT-inhibitory activity in vitro, microsome of the small intestine of a rat (acylation of cholesterol with radiolabeled oleoyl-CoA). The procedure: as §1, §2, §3

At ACAT [1], `CCCCNC(=O)Nc1c(C)cc(O)cc1OCCCn1cnc(-c2ccccc2)c1CC` [Example 1, N-Butyl-N'-[2-[3-(5-ethyl-4-phenyl-1H-imidazol-1-yl)propoxy]-4-hydroxy-6-methylphenyl]urea] displayed a concentration for half-maximal inhibition (IC50) of 0.58 µM.
For the compound `CCCCNC(=O)Nc1c(C)cccc1OCCCn1cnc(-c2ccc(O)cc2)c1CC` [Example 2, N-Butyl-N'-[2-[3-[5-ethyl-4-(4-hydroxyphenyl)-1H-imidazol-1-yl]propoxy]-6-methylphenyl]urea], the IC50 came out at 6.9 µM against ACAT [1] and 1 µM with ACAT [2].
For `CCCCNC(=O)Nc1c(C)cccc1OCCCn1cnc(-c2ccccc2)c1C(C)O` (centres unmarked) [Example 5, N-Butyl-N'-[2-[3-[5-(1-hydroxyethyl)-4-phenyl-1H-imidazol-1-yl]propoxy]-6-methylphenyl]urea], the IC50 against ACAT [3] is 0.15 µM; against ACAT [1] it was 0.85 µM; with ACAT [2], 0.17 µM.
As to `CCc1c(-c2ccccc2)ncn1CCCOc1cccc(C)c1NC(=O)NCCCCO` [Example 6, N-(4-Hydroxybutyl)-N'-[2-[3-(5-ethyl-4-phenyl-1H-imidazol-1-yl)propoxy]-6-methylphenyl]urea], at ACAT [1], the half-inhibitory concentration (IC50) was 3.8 µM.
`CCc1c(-c2ccccc2)ncn1CCCOc1cccc(C)c1NC(N)=O` [Example 8, N-[2-[3-(5-Ethyl-4-phenyl-1H-imidazol-1-yl)propoxy]-6-methylphenyl]urea]: in the experiment with ACAT [2], the IC50 turned out to be 3.5 µM.
With `CCCCNC(=O)Nc1c(CO)cccc1OCCCn1cnc(-c2ccccc2)c1CC` [Example 9, N-Butyl-N'-[2-[3-(5-ethyl-4-phenyl-1H-imidazol-1-yl)propoxy]-6-hydroxymethylphenyl]urea], the IC50 at ACAT [3] worked out at 0.084 µM; against ACAT [1] it was 0.7 µM; in the experiment on ACAT [2] it was 0.32 µM.
In the case of `CCc1c(-c2ccccc2)ncn1CCCOc1cccc(C)c1NC(=O)NCCC(C)O` (centres unmarked) [Example 10, N-(3-Hydroxybutyl)-N'-[2-[3-(5-ethyl-4-phenyl-1H-imidazol-1-yl)propoxy]-6-methylphenyl]urea], the IC50 against ACAT [3] came to 4.2 µM; against ACAT [1], 1 µM; in the experiment with ACAT [2] it was 0.48 µM.
As for `CCCCNC(=O)Nc1c(OCCCn2cnc(-c3ccccc3)c2CC)ccc(O)c1C` [Example 11, N-Butyl-N'-[2-[3-(5-ethyl-4-phenyl-1H-imidazol-1-yl)propoxy]-5-hydroxy-6-methylphenyl]urea], the results for the IC50 at ACAT [3], against ACAT [1] and in the experiment with ACAT [2] were 0.068 µM, 0.26 µM and 0.1 µM, respectively.
